Test results published in patent publication US8541584B2, “3-(1,2,3-triazol-4-yl) pyrrolo [2,3-b] pyridine derivatives” (Merck Patent GmbH, priority 2009, dated 2013).

How the values were obtained:
Assay type in all cases: biochemical
PDK1 = biological target: T1, PDK1 (Homo sapiens, UniProt O15530); test: Test for the inhibition of PDK1 (384-well flashplate, 33P-ATP); settings: His6-PDK1 3.4 nM, 4 μM ATP, 30° C., 60 min
T1 construct: His6 (N)
T1 sequence (O15530 51-556 limits assumed): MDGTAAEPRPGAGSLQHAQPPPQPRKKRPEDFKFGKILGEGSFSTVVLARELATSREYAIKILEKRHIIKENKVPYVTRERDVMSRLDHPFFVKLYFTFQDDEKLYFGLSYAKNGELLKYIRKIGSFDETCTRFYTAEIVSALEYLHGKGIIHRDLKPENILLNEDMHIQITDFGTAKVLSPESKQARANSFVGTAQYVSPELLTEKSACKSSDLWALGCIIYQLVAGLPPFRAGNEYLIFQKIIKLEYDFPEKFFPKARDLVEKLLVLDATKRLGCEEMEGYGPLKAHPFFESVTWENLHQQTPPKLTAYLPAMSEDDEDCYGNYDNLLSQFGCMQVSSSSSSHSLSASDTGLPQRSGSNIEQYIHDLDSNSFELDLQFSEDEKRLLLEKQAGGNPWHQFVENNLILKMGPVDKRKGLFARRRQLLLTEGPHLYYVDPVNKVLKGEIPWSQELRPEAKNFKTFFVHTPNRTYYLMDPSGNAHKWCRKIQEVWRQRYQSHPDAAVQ
Method: 4.0 Test for the Inhibition of PDK1
The experimental batches are carried out in a flashplate system with 384 wells/microtitration plate.
In each case, the PDK1 sample His6-PDK1(1-50)(3.4 nM), the PDK1 substrate biotin-bA-bA-[…] (400 nM), 4 μM ATP (with 0.2 μCi of ^33P-ATP/well) and the test substance in 50 μl of conventional experimental solution per well are incubated at 30° C. for 60 min. The test substances are employed in corresponding concentrations (if desired in a dilution series). The control is carried out without test substance. The reaction is stopped using standard methods and washed. The activity of the kinase is measured via the incorporated radioactivity in top count. In order to determine the non-specific kinase reaction (blank value), the experimental batches are carried out in the presence of 100 nM staurosporin.
The radioactivity (decompositions per minute) of the blank value (no use of test substance in the presence of staurosporin) is subtracted from all other radioactivity values. The controls (kinase activity without test substance) are set equal to 100 percent and all other radioactivity values (after subtracting the blank value) are expressed set in relation thereto (for example in % of the control).
IC50 values (50% inhibition) are determined with the aid of statistics programmes, such as, for example, RS1.

IKKε = biological target: T2, IKKε (Homo sapiens, UniProt Q14164); test: IKKε kinase test (384-well flashplate); settings: 1 nM IKKε, 10 μM ATP, 30° C., 120 min; read-out: IC50 [IKKepsilon]
T2 sequence (Q14164 1-716): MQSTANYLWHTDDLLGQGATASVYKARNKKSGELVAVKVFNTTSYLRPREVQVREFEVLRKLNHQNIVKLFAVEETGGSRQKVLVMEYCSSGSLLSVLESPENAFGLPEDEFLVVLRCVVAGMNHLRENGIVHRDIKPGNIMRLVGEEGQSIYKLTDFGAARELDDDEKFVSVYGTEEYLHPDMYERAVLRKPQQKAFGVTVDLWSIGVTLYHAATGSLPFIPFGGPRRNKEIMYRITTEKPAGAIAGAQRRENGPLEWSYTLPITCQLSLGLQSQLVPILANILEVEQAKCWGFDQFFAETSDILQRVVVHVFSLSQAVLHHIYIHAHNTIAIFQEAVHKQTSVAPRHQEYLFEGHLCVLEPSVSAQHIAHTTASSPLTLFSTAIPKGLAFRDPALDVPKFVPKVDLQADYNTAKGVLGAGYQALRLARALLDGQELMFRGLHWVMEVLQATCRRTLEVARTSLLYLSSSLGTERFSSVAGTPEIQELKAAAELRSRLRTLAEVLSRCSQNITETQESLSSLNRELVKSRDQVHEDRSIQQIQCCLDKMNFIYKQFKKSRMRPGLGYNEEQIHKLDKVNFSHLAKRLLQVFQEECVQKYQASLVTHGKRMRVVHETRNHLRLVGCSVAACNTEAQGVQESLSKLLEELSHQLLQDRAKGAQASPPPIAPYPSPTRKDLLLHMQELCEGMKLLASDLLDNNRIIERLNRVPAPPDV
Method: IKKε—Kinase Test (IKKepsilon)
The kinase assay is performed as 384-well flashplate assay.
1 nM IKKε, 800 nM biotinylated IκBα(19-42) peptide (biotin-C6-C6-[…]) and 10 μM ATP (with 0.3 μCi of ^33P-ATP/well) are incubated in a total volume of 50 μl (10 mM MOPS, 10 mM magnesium acetate, 0.1 mM EGTA, 1 mM dithiothreitol, 0.02% of Brij35, 0.1% of BSA, 0.1% of BioStab, pH 7.5) with or without test substance at 30° C. for 120 min. The reaction is stopped using 25 μl of 200 mM EDTA solution, filtered off with suction after 30 min at room temperature, and the wells are washed 3 times with 100 μl of 0.9% NaCl solution. The non-specific proportion of the kinase reaction (blank) is determined using 3 μM EMD 1126352 (BX-795). Radioactivity is measured in the Topcount. IC50 values are calculated using RS1.

[1] = biological target: T3, TANK binding kinase (TBK1) (Homo sapiens, UniProt Q9UHD2); test: TBK1 kinase test (384-well flashplate); settings: 0.6 nM TBK1, 10 μM ATP, 30° C., 120 min
T3 sequence (Q9UHD2 1-729): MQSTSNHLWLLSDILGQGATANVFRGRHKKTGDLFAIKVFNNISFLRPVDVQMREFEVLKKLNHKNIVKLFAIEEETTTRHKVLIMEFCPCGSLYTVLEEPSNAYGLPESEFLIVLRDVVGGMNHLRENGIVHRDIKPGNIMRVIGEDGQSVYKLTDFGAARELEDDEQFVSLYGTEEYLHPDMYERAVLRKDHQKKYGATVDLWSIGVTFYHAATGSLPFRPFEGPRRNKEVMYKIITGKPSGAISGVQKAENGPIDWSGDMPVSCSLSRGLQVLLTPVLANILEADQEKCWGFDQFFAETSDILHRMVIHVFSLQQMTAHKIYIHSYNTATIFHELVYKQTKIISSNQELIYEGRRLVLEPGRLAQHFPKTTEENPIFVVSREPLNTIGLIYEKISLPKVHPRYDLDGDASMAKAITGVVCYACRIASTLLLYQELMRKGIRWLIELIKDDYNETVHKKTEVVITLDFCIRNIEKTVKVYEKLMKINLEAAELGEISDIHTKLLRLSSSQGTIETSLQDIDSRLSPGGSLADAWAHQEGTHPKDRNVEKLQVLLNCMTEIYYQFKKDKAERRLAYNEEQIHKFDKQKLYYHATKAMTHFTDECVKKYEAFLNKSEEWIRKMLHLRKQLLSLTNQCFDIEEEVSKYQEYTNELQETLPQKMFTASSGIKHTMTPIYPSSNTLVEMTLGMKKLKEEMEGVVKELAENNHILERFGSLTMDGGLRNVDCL
Method: The kinase assay is performed as 384-well flashplate assay. 0.6 nM TANK binding kinase (TBK1), 800 nM biotinylated MELK-derived peptide (biotin-Ah-Ah-[…]) and 10 μM ATP (with 0.25 μCi of ^33P-ATP/well) are incubated in a total volume of 50 μl (10 mM MOPS, 10 mM magnesium acetate, 0.1 mM EGTA, 1 mM DTT, 0.02% of Brij35, 0.1% of BSA, pH 7.5) with or without test substance at 30° C. for 120 min. The reaction is stopped using 25 μl of 200 mM EDTA solution, filtered off with suction after 30 min at room temperature, and the wells are washed 3 times with 100 μl of 0.9% NaCl solution. The non-specific proportion of the kinase reaction (blank) is determined using 100 nM staurosporine. Radioactivity is measured in the Topcount. IC50 values are calculated using RS1.

| IC50 (PDK1) [nM] | IC50 (IKKε) [nM] | IC50 [1] [nM] | Compound |
| --- | --- | --- | --- |
| 0.5 to 1000 | 0.5 to 1000 | 0.5 to 1000 | Cn1cc(-c2cnc3[nH]cc(-c4cn(CCN5CCOCC5)nn4)c3c2)cn1 [Compound A18, 5-(1-Methyl-1H-pyrazol-4-yl)-3-[1-(2-morpholin-4-ylethyl)-1H-1,2,3-triazol-4-yl]-1H-pyrrolo[2,3-b]pyridine] |
| 0.5 to 1000 | 0.5 to 1000 | 0.5 to 1000 | Cn1cc(-c2cnc3[nH]cc(-c4cn(CCc5ccccc5)nn4)c3c2)cn1 [Compound A16, 5-(1-Methyl-1H-pyrazol-4-yl)-3-(1-phenethyl-1H-1,2,3-triazol-4-yl)-1H-pyrrolo[2,3-b]-pyridine] |
